# From US20140134140A1, “MESENCHYMAL STEM CELL COMPOSITIONS FOR THE TREATMENT OF MICROBIAL INFECTIONS” (Case Western Reserve University, priority 2012, published 2014)
# Assays:
# CFTR [1] = biological target: T1, CFTR (Mus musculus, UniProt P26361); experiment: LL-37 secretion by BMC9 cells with CFTR inhibition; type: cell-based; conditions: 10 μg/ml, 48 hours; Mean±SEM, n=3
# T1 construct: BMC9 cells have 0.36±0.14% Cftr expression; endogenous in cells; host or cells: BMC9 immortal mouse MSC clone
# Protocol: (§1) To determine if CF MSCs express CFTR to validate the I-172 studies, we took advantage of an immortal mouse derived MSC clone BMC9, especially since we have a highly reproducible mouse Cftr gene expression assay in our CF animal CORE center. These cells are abundant and have s a MSC phenotype when grown at 37° C. […] The sensitivity and specificity of our Cftr expression assay is 40±2 Ct. If we had used a lower expressing tissue, the % of Cftr levels would be higher. BMC9 cells cultured with I-172 (10 μg/ml, for 48 hours) secreted 37±13% (Mean±SEM, n=3) less LL-37 than BMC9 cells not cultured with I-172 (P≦0.05). […] Our future studies are aimed at studying the differences between and Cftr deficient MSCs and control MSCs.
# CFTR [2] = biological target: T2, CFTR (Homo sapiens, UniProt P13569); experiment: LL-37 secretion by cultured hMSCs with or without CFTR inhibition; type: cell-based
# T2 construct: endogenous in cells; host or cells: human mesenchymal stem cells (hMSCs) from bone marrow of healthy volunteers
# Protocol: FIG. 11 illustrates that hMSCs and BMM cells secrete LL-37. hMSCs utilized in the animal models were cultured in vitro with and without the addition of 0.5 ug/ml LPS (n=5 preparations) with or without inhibition of CFTR with I-172 (10 ug/ml for 48 hours) and incubated for 24 hours. […] We used the student t-test for these analyses.
# as §1
# T2 sequence (P13569 whole entry): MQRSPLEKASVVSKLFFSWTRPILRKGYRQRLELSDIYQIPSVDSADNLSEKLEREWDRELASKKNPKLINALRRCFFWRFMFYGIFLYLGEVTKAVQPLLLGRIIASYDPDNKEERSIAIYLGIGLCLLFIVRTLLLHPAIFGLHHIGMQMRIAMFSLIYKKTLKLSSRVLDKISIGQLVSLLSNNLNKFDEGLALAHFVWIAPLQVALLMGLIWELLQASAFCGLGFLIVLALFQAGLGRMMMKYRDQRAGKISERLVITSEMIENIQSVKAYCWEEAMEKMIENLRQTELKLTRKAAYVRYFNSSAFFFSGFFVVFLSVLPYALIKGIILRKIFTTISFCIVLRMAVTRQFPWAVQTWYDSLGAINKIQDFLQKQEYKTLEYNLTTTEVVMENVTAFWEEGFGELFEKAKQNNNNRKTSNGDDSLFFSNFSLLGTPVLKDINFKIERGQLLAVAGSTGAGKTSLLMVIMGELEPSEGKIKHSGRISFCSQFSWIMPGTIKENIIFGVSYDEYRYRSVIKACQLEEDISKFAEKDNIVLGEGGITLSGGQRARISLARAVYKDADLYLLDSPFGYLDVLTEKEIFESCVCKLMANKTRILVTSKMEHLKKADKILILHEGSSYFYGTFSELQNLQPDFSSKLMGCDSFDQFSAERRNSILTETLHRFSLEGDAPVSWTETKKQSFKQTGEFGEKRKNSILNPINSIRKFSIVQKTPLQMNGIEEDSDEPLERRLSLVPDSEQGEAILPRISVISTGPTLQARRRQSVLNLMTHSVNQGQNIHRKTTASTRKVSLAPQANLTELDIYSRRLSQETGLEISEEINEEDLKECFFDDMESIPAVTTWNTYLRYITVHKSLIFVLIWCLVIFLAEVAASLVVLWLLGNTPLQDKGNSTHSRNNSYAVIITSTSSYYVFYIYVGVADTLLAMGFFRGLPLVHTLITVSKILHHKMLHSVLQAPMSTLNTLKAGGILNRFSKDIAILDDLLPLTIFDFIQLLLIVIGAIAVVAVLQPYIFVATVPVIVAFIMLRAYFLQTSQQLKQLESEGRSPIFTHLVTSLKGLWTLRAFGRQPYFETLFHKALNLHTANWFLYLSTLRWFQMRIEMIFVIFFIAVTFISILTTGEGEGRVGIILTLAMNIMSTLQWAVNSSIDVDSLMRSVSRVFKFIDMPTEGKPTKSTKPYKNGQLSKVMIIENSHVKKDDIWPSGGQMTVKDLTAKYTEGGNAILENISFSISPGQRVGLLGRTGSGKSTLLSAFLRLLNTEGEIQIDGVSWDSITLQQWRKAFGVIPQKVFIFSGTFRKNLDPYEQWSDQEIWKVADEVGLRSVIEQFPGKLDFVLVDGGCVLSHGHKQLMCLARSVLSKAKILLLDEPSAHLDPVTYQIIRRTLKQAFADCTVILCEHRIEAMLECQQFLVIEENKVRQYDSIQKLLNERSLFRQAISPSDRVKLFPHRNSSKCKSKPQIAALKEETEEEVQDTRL
# T1 sequence (P26361 whole entry): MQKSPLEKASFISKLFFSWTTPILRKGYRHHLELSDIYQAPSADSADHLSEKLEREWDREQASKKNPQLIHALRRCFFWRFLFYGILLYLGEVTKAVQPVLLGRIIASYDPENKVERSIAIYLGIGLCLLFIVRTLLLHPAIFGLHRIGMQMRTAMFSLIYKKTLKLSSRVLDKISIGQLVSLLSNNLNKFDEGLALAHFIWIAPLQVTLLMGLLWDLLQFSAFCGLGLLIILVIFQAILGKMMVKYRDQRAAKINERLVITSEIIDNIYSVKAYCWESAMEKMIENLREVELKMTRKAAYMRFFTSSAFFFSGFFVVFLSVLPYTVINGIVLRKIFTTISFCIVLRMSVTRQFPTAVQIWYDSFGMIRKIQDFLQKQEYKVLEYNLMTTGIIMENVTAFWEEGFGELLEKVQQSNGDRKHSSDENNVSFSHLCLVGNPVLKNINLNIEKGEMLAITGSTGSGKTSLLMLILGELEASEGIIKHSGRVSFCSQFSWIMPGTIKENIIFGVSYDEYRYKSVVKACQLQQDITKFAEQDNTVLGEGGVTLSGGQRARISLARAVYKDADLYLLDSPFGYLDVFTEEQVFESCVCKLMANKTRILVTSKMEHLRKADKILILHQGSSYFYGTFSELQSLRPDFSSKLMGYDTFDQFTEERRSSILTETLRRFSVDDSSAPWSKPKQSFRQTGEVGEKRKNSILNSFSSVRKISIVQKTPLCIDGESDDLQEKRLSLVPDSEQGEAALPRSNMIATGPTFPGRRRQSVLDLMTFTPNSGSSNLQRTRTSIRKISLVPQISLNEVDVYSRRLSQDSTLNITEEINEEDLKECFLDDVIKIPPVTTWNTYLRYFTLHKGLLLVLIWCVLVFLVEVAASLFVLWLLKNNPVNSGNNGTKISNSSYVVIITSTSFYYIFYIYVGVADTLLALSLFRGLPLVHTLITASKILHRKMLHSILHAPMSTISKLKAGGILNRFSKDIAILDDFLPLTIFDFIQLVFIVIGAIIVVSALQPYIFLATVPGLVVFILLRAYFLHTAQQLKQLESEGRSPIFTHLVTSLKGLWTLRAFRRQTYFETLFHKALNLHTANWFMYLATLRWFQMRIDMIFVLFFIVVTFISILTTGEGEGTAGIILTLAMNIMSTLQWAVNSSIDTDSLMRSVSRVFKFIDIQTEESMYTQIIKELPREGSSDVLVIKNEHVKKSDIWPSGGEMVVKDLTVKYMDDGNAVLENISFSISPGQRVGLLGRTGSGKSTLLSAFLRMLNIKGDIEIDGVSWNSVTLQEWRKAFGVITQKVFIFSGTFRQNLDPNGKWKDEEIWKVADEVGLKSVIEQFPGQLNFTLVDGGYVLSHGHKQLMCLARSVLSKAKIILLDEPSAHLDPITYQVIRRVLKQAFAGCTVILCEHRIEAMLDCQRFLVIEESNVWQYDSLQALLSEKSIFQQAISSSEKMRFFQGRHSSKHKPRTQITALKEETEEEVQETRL
smiles,measurement,setting,value
O=C(O)c1ccc(/C=C2\SC(=S)N(c3cccc(C(F)(F)F)c3)C2=O)cc1 [I-172],less LL-37 secreted than BMC9 cells not cultured with I-172,CFTR [1],37±13%
same,amount of LL-37 after LPS stimulation,"CFTR [2]; 10 ug/ml for 48 hours then LPS, relative to LPS control",even further suppressed
same,ability of hMSCs to secrete LL-37,"CFTR [2]; 10 ug/ml for 48 hours, relative to un-stimulated control",significantly reduced
